Results: the CheMixHub ionic liquid set
± gives the uncertainty stated by the source.

Assay: xn = mol fraction of the nth substance listed

CCCC[n+]1ccccc1.[Br-] + CC[n+]1ccccc1.[Br-]
viscosity [mPa·s], 101 kPa
Conditions	x2 = 0.085	x2 = 0.197	x2 = 0.269	x2 = 0.352	x2 = 0.52	x2 = 0.621	x2 = 0.689	x2 = 0.811	x2 = 0.903
353.1 K	–	–	–	–	93.7 ± 6.9	–	–	–	–
358.1 K	–	–	–	–	77.4 ± 7.2	–	–	–	–
363.1 K	–	–	–	86.2 ± 6.7	64.2 ± 4.9	53.8 ± 3.5	–	–	–
368.1 K	–	–	80.4 ± 6.3	70.3 ± 5.9	53.7 ± 4	45.6 ± 3.2	–	–	–
373.1 K	–	–	65.3 ± 5.6	57.8 ± 4.7	45.1 ± 3.2	38.8 ± 2.6	–	–	–
378.1 K	–	–	53.5 ± 4.4	47.8 ± 3.7	38.1 ± 2.7	33.2 ± 2.2	30.3 ± 1.7	–	–
383.1 K	–	–	44.2 ± 3.5	39.9 ± 3	32.4 ± 2.2	28.6 ± 1.8	26.3 ± 1.6	–	–
388.1 K	45.3 ± 3.3	40.8 ± 2.6	36.8 ± 2.8	33.5 ± 2.4	27.7 ± 1.8	24.7 ± 1.5	22.9 ± 1.3	19.85 ± 0.99	–
393.1 K	37.4 ± 2.9	34.2 ± 2.5	30.9 ± 2.2	28.3 ± 2	23.9 ± 1.5	21.5 ± 1.3	20 ± 1.1	17.61 ± 0.92	–
398.1 K	31.1 ± 2.3	28.9 ± 2	26.2 ± 1.8	24.2 ± 1.6	20.7 ± 1.3	18.8 ± 1.1	17.59 ± 0.97	15.64 ± 0.8	14.32 ± 0.66
403.1 K	26.2 ± 1.9	24.7 ± 1.6	22.3 ± 1.5	20.8 ± 1.3	18 ± 1	16.46 ± 0.92	15.52 ± 0.83	13.94 ± 0.7	12.86 ± 0.61
408.1 K	22.2 ± 1.5	21.2 ± 1.3	19.2 ± 1.2	18 ± 1.1	15.75 ± 0.89	14.52 ± 0.78	13.76 ± 0.72	12.45 ± 0.61	11.57 ± 0.54
413.1 K	19.1 ± 1.2	18.5 ± 1.1	16.65 ± 0.99	15.64 ± 0.91	13.88 ± 0.75	12.86 ± 0.67	12.25 ± 0.62	11.17 ± 0.53	10.44 ± 0.48
418.1 K	16.53 ± 0.99	16.2 ± 0.89	14.56 ± 0.82	13.73 ± 0.76	12.29 ± 0.64	11.46 ± 0.57	10.97 ± 0.53	10.06 ± 0.47	9.44 ± 0.43
423.1 K	14.47 ± 0.81	14.35 ± 0.74	12.83 ± 0.69	12.15 ± 0.64	10.96 ± 0.54	10.26 ± 0.5	9.85 ± 0.47	9.08 ± 0.41	8.56 ± 0.38
428.1 K	12.78 ± 0.67	12.83 ± 0.62	11.41 ± 0.57	10.82 ± 0.54	9.83 ± 0.47	9.23 ± 0.43	8.89 ± 0.4	8.23 ± 0.36	7.77 ± 0.34
433.1 K	11.41 ± 0.55	–	10.23 ± 0.48	9.72 ± 0.45	8.87 ± 0.4	8.35 ± 0.37	8.06 ± 0.35	7.49 ± 0.32	7.08 ± 0.3
438.1 K	10.3 ± 0.46	10.55 ± 0.44	9.25 ± 0.41	8.8 ± 0.39	8.05 ± 0.35	7.59 ± 0.33	7.34 ± 0.31	6.83 ± 0.29	6.46 ± 0.27
443.1 K	9.39 ± 0.41	–	8.44 ± 0.26	8.03 ± 0.34	7.36 ± 0.32	6.93 ± 0.29	6.71 ± 0.29	6.25 ± 0.27	5.91 ± 0.25

CN(CCO)CCO + CCCC[n+]1ccn(C)c1.F[B-](F)(F)F
101 kPa
Conditions	viscosity [mPa·s]
293.15 K, x2 = 0.8999	105.6 ± 6.5
303.15 K, x2 = 0.3	43.7 ± 2.6
303.15 K, x2 = 0.8999	63.5 ± 3.9
323.15 K, x2 = 0.1974	17.8 ± 1.1
323.15 K, x2 = 0.6	18.8 ± 1.1
333.15 K, x2 = 0.1974	12.09 ± 0.73
333.15 K, x2 = 0.7998	16.8 ± 1

CC1COC(=O)O1 (configuration not stated) + CCCCn1cc[n+](C)c1C.O=S(=O)([N-]S(=O)(=O)C(F)(F)F)C(F)(F)F
101.3 kPa, x2 = 0
Conditions	viscosity [mPa·s]
288.15 K	3.063 ± 0.064
293.15 K	2.746 ± 0.058
343.15 K	1.213 ± 0.026
